Where a name gives a salt, the structure may show the parent alone.

The first experiment concerns the target T1, ENaC (Epithelial Sodium Channel) (Mus musculus, UniProt Q61180+Q9WU38+Q9WU39).
T1 construct: Mouse kidney M−1 cells were cultivated in DMEM; endogenous in cells; host or cells: Mouse kidney M-1 cells, cultivated with dexamethasone on transwell filters
T1 sequence (Q61180 1-699): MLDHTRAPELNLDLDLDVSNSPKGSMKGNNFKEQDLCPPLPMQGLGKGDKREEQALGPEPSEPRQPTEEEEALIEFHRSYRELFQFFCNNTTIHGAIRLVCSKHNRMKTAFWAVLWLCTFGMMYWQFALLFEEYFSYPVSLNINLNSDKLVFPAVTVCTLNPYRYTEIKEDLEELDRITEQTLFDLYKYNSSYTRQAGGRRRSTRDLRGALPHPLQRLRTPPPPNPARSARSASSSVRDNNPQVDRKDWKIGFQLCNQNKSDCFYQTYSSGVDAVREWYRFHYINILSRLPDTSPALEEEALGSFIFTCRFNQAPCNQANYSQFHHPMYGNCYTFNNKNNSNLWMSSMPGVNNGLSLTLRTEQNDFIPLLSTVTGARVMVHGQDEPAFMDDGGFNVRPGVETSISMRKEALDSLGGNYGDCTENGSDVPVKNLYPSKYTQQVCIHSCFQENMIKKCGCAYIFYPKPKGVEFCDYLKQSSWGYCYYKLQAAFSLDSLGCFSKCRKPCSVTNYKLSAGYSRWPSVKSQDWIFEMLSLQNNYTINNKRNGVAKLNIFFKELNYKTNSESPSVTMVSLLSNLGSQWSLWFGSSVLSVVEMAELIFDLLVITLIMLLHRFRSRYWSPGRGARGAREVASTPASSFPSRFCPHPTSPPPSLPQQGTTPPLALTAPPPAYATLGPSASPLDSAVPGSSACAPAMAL
T1 sequence (Q9WU38 1-638): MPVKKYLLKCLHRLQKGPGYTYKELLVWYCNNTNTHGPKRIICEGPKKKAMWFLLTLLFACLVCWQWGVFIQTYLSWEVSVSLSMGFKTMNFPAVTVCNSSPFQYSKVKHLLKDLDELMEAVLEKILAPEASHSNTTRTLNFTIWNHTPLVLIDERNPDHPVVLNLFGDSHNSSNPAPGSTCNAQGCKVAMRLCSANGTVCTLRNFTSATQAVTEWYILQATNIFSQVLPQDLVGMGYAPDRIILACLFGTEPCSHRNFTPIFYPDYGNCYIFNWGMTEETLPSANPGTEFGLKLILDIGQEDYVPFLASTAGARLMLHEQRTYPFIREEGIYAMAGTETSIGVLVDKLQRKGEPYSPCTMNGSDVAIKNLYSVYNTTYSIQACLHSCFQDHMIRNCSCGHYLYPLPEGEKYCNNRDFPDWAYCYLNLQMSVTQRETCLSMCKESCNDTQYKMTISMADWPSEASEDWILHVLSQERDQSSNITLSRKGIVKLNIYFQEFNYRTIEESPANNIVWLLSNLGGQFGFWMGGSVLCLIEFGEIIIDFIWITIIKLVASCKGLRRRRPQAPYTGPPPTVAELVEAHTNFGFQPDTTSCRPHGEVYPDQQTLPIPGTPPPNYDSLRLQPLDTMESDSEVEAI
T1 sequence (Q9WU39 1-655): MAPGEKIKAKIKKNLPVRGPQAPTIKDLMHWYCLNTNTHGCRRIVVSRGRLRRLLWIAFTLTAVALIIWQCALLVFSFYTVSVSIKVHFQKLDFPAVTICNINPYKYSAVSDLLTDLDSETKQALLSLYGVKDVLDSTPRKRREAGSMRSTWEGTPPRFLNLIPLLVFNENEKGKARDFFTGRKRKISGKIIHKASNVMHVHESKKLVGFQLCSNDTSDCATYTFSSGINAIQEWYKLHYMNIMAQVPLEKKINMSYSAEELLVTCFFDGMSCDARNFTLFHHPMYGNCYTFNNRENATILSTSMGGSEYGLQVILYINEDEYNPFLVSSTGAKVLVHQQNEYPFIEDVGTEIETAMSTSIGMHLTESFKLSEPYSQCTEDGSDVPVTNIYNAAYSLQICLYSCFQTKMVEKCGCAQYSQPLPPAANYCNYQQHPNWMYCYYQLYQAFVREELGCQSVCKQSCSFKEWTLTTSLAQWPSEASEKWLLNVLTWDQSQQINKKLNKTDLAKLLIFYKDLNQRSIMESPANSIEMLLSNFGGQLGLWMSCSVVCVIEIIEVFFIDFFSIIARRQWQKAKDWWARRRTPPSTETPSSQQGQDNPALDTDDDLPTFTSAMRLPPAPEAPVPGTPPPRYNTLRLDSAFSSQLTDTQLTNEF
As to the kind of experiment: Ussing Chamber assay (short circuit current, amiloride sensitive I_SC).
Conditions: not given
Format: cell-based. As for the experimental part: The IC50 values of the example compounds given above were determined in the Ussing Chamber assay.
Ussing Chamber: Mouse kidney M−1 cells were cultivated in DMEM containing 5% FCS and 5 μM dexamethasone for 10 to 12 days on polyester transwell filters. Filters were inserted into a teflon-coated well-plate which fit into the ussing chamber system. Prior to measurement the medium of M−1 cells was replaced with Caco-2 transport buffer (Invitrogen, Germany). During measurements, the Ussing chamber temperature was kept at 37° C. Short circuit currents (I_sc) were measured in the voltage-clamp mode with the software package Lab View for data acquisition and analysis. The transepithelial electrical resistance (TEER) was determined by the application of voltage steps of ±5 mV every 5 sec. Compounds were administered at a final concentration of 3 μM or at increasing concentrations (1-3-10 μM) to the apical solution. At the end of each experiment the amiloride sensitive I_SC was measured by adding 3 μM amiloride to the apical compartment. Results are expressed as inhibition in percent of the amiloride effect or as IC50.
For orientation: IC50 means the midpoint of a concentration-inhibition curve. `Nc1nc(N)c(C(=O)NC2CCC[N+](CCCc3ccc(O)cc3)(CCCc3ccc(O)cc3)C2)nc1Cl` (centres unmarked) [Example 6.15, 3-[(3,5-Diamino-6-chloro-pyrazine-2-carbonyl)-amino]-1,1-bis-[3-(4-hydroxy-phenyl)propyl]-piperidinium trifluoroacetate] returned an IC50 of 0.013 µM.

Still in this experiment, the particulars now being: Ussing chamber, mouse kidney M-1 cells, short circuit current, compound added to the apical solution; read-out: IC50.
Regarding `COc1ccc(CCC[N+]2(CCCc3ccc(C(N)=O)cc3)CCCC(NC(=O)c3nc(Cl)c(N)nc3N)C2)cc1` (centres unmarked) [Example 5.6], the IC50 was 0.025 µM.

With `COc1ccc(CCC[N+]2(CCCc3ccc(C(=O)NCCCN(C)C)cc3)CCCC(NC(=O)c3nc(Cl)c(N)nc3N)C2)cc1` (centres unmarked) [Example 5.7], the IC50 was 0.02 µM.

On to `COC(=O)CCNC(=O)c1ccc(CCC[N+]2(CCCc3ccc(OC)cc3)CCCC(NC(=O)c3nc(Cl)c(N)nc3N)C2)cc1` (centres unmarked) [Example 5.8], for which the IC50 was 0.024 µM.

Take `NC(=O)COc1ccc(CCC[N+]2(CCCc3ccc(OCC(N)=O)cc3)CCCC(NC(=O)c3nc(Cl)c(N)nc3N)C2)cc1` (centres unmarked) [Example 6.4]: the IC50 is 0.072 µM.

Consider `CN(C)CCNC(=O)COc1ccc(CCC[N+]2(CCCc3ccc(OCC(=O)NCCN(C)C)cc3)CCCC(NC(=O)c3nc(Cl)c(N)nc3N)C2)cc1` (centres unmarked) [Example 6.5], for which the half-maximal inhibitory concentration (IC50) came to 0.05 µM.

As to `C[N+](C)(C)CCNC(=O)COc1ccc(CCC[N+]2(CCCc3ccc(OCC(=O)NCC[N+](C)(C)C)cc3)CCCC(NC(=O)c3nc(Cl)c(N)nc3N)C2)cc1` (centres unmarked) [Example 6.6], the IC50 came to 0.068 µM.

On to `CN(C)CCCNC(=O)COc1ccc(CCC[N+]2(CCCc3ccc(OCC(=O)NCCCN(C)C)cc3)CCCC(NC(=O)c3nc(Cl)c(N)nc3N)C2)cc1` (centres unmarked) [Example 6.7], for which the IC50 stood at 0.031 µM.

`CN(C)CCCN(C)C(=O)COc1ccc(CCC[N+]2(CCCc3ccc(OCC(=O)N(C)CCCN(C)C)cc3)CCCC(NC(=O)c3nc(Cl)c(N)nc3N)C2)cc1` (centres unmarked) [Example 6.8]: the IC50 is 0.041 µM.

On to `CN(C)CCN(C)C(=O)COc1ccc(CCC[N+]2(CCCc3ccc(OCC(=O)N(C)CCN(C)C)cc3)CCCC(NC(=O)c3nc(Cl)c(N)nc3N)C2)cc1` (centres unmarked) [Example 6.9], for which the IC50 was determined as 0.065 µM.

Take `C[N+](C)(C)CCNC(=O)COc1ccc(CCC[N+]2(CCCc3ccc(OCC(=O)NCC[N+](C)(C)C)cc3)CCC[C@H](NC(=O)c3nc(Cl)c(N)nc3N)C2)cc1` [Example 6.10]: the IC50 came to 0.068 µM.

For the compound `COC(=O)COc1ccc(CCC[N+]2(CCCc3ccc(OCC(=O)OC)cc3)CCC[C@H](NC(=O)c3nc(Cl)c(N)nc3N)C2)cc1` [Example 6.11], the IC50 is 0.045 µM.

For the compound `CN(C)C(=O)COc1ccc(CCC[N+]2(CCCc3ccc(OCC(=O)N(C)C)cc3)CCC[C@H](NC(=O)c3nc(Cl)c(N)nc3N)C2)cc1` [Example 6.12], the IC50 was 0.134 µM.

Take `CN1CCC(NC(=O)COc2ccc(CCC[N+]3(CCCc4ccc(OCC(=O)NC5CCN(C)CC5)cc4)CCC[C@H](NC(=O)c4nc(Cl)c(N)nc4N)C3)cc2)CC1` [Example 6.13]: the IC50 came to 0.015 µM.

Take `CN(C)CCNC(=O)COc1ccc(CCC[N+]2(CCCc3ccc(OCC(=O)NCCN(C)C)cc3)CCC[C@H](NC(=O)c3nc(Cl)c(N)nc3N)C2)cc1` [Example 6.14]: the IC50 was found to be 0.045 µM.

As for `COCCN(C)C(=O)COc1ccc(CCC[N+]2(CCCc3ccc(OCC(=O)N(C)CCOC)cc3)CCC[C@H](NC(=O)c3nc(Cl)c(N)nc3N)C2)cc1` [Example 6.16], the IC50 stood at 0.042 µM.

On to `CN(Cc1ccncc1)C(=O)COc1ccc(CCC[N+]2(CCCc3ccc(OCC(=O)N(C)Cc4ccncc4)cc3)CCC[C@H](NC(=O)c3nc(Cl)c(N)nc3N)C2)cc1` [Example 6.17], for which the IC50 worked out at 0.021 µM.

For `Nc1nc(N)c(C(=O)N[C@H]2CCC[N+](CCCc3ccc(OCC(=O)NCCCO)cc3)(CCCc3ccc(OCC(=O)NCCCO)cc3)C2)nc1Cl` [Example 6.18], the IC50 was determined as 0.013 µM.

For the compound `Nc1nc(N)c(C(=O)N[C@H]2CCC[N+](CCCc3ccc(OCC(=O)NCC(O)CO)cc3)(CCCc3ccc(OCC(=O)NCC(O)CO)cc3)C2)nc1Cl` (some centres unmarked) [Example 6.19], the IC50 is 0.03 µM.

In the case of `Nc1nc(N)c(C(=O)N[C@H]2CCC[N+](CCCc3ccc(OCC(=O)NC(CO)CO)cc3)(CCCc3ccc(OCC(=O)NC(CO)CO)cc3)C2)nc1Cl` [Example 6.20], the IC50 was 0.046 µM.

Take `COCCN(CCOC)C(=O)COc1ccc(CCC[N+]2(CCCc3ccc(OCC(=O)N(CCOC)CCOC)cc3)CCC[C@H](NC(=O)c3nc(Cl)c(N)nc3N)C2)cc1` [Example 6.21]: the IC50 turned out to be 0.023 µM.

Regarding `CN(Cc1ccccn1)C(=O)COc1ccc(CCC[N+]2(CCCc3ccc(OCC(=O)N(C)Cc4ccccn4)cc3)CCC[C@H](NC(=O)c3nc(Cl)c(N)nc3N)C2)cc1` [Example 6.22], the IC50 was 0.018 µM.

The experiment is the same for the next values; noted with them: Ussing chamber, mouse kidney M-1 cells, short circuit current; unit inferred; read-out: IC50.
On to `COc1ccc(CCC[N+]2(CCCc3ccc(C(=O)NCCC(=O)O)cc3)CCCC(NC(=O)c3nc(Cl)c(N)nc3N)C2)cc1` (centres unmarked) [Example 5.10, 1-{3-[4-(Carboxyethyl-carbamoyl)-phenyl]-propyl}-3-[(3,5-diamino-6-chloro-pyrazine-2-carbonyl)-amino]-1-[3-(4-methoxy-phenyl)-propyl]-piperidinium chloride], for which the IC50 was 0.15 µM.

For the compound `Nc1nc(N)c(C(=O)NC2CCC[N+](CCCc3ccc(OCC(=O)NCCOCCOCCO)cc3)(CCCc3ccc(OCC(=O)NCCOCCOCCO)cc3)C2)nc1Cl` (centres unmarked) [Example 6.3, 3-[(3,5-Diamino-6-chloro-pyrazine-2-carbonyl)-amino]-1,1-bis-{3-[4-({2-[2-(2-hydroxyethoxy)-ethoxy]-ethylcarbamoyl}-methoxy)-phenyl]-propyl}-piperidinium trifluoroacetate], the IC50 worked out at 0.103 µM.

The same experiment, now with this note: Ussing chamber, mouse kidney M-1 cells, short circuit current; value printed in the example text with μM; read-out: IC50.
For the compound `COC(=O)COc1ccc(CCC[N+]2(CCCc3ccc(OCC(=O)OC)cc3)CCCC(NC(=O)c3nc(Cl)c(N)nc3N)C2)cc1` (centres unmarked) [Example 6, 3-[(3,5-Diamino-6-chloro-pyrazine-2-carbonyl)-amino]-1,1-bis-[3-(4-methoxycarbonylmethoxy-phenyl)-propyl]-piperidinium trifluoroacetate], the IC50 came to 0.02 µM.

`Nc1nc(N)c(C(=O)NC2CCC[N+](CCCc3ccc(OCC(=O)O)cc3)(CCCc3ccc(OCC(=O)O)cc3)C2)nc1Cl` (centres unmarked) [Example 6.1, 1,1-Bis-[3-(4-carboxymethoxy-phenyl)-propyl]-3-[(3,5-diamino-6-chloro-pyrazine-2-carbonyl)-amino]-piperidinium chloride]: the concentration for half-maximal inhibition (IC50) is over 1 µM.

For the origin of these results see US9096548B2, “Pyrazine amide compounds” (Boehringer Ingelheim International GmbH, priority 2013, dated 2015).
